Key:
M38K^Opto-mFGFR1 cells = experiment: EMT-like morphology changes (aspect ratio) in M38K Opto-mFGFR1 cells in response to luminol SCL; type: cell-based
Method: After additional 24 h, cells were photographed on the Nikon Ti300 microscope.

[1] = test system: light-activated gene transcription plasmid pDAWN; experiment: Induction of mCherry expression by SCL and pDAWN in E. coli; type: cell-based
Method: (§1) For starting cultures, E. coli BL21 (DE) cells transformed with pDAWN were grown overnight (225 rpm, 37° C.) in LB medium (pH 7.0; Sigma) supplemented with 50 μg/ml kanamycin (Sigma). Cells were then diluted 100-fold in fresh LB medium (pH 8.0) and growth was allowed to reach OD600˜0.4 (7.3×10^7 CFU/ml) under non-inducing conditions (i.e. in the dark). For US experiments, 250 ml of these cultures were centrifuged (4700 rpm, 5 min) and resuspended in 200 ml M9 minimal medium (1×M9 salts, 2 mM MgSO4, 0.1 mM CaCl2, 0.4% glucose, buffered with 0.05 M Tris, pH 9.0). Each culture was treated with US for 3 h. After stimulation, aliquots (50 ml) were centrifuged, resuspended (in M9 minimal media) and incubated in 96-well plates overnight under non-inducing conditions (dark) to allow mCherry maturation.

E. coli = settings: treatment with US and luminol for 3 h (20 mM luminol, pH 9), M9 minimal media
Method: as §1
OD600 and mCherry fluorescence emission spectra (λex=543±10 nm, λem=575 to 695 nm in 10 nm increments) were measured with a (Biotek Synergy H1) microplate reader in a black 96-well flat-bottom plates (typical volume was 200 μl).

## COc1cc(OC)cc(-c2cc3cnc(N)nc3nc2NC(=O)NC(C)(C)C)c1 [PD166866]
M38K^Opto-mFGFR1 cells; 10 μM for 1 h before US stimulation (585 kHz, 64% amplitude, 3 h)
  effect of luminol SCL on cell morphology after pre-treatment with inhibitor: abolished

## COc1ccc(-c2cn3c(=O)c(C)nc-3c[nH]2)cc1.Cl [MCLA, 6-(4-Methoxyphenyl)-2-methyl-3,7-dihydroimidazo[1,2-a]pyrazin-3-one Hydrochloride]
[1]; MCLA-catalyzed SCL, pDAWN-V28I, 2 h US stimulation, 2 μM MCLA, pH 7
  induction of mCherry expression: two

## Nc1cccc2c(=O)[nH][nH]c(=O)c12 [luminol, 5-Amino-2,3-dihydro-1,4-phthalazinedione]
[1]; {}
  induction of mCherry production (increase compared to control experiments): ~5 fold
M38K^Opto-mFGFR1 cells; luminol SCL, two chambers configuration, 20 mM luminol, US 585 kHz, 64% amplitude, 3 h
  morphological changes in M38K^Opto-mFGFR1 cells: induced epithelial-mesenchymal transition (EMT)-like morphological changes
E. coli
  reduction of E. coli viability indicators (OD600 and CFUs): ~50%

From patent US20190062761A1, “ULTRASOUND METHOD” (INSTITUTE OF SCIENCE AND TECHNOLOGY AUSTRIA (IST AUSTRIA), priority 2016, published 2019)
